# Where two headings read alike, the source gives them in different places.
# Columns and labels:
# [1] = target: T1, recombinant Human Carbonic Anhydrase I (Homo sapiens, UniProt P00915); assay: CA1 inhibitory assay (4-nitrophenyl acetate esterase); format: biochemical; settings: average ± SEM, three independent experiments; read-out: Carbonic Anhydrase IC50 (uM) hCA I
# T1 construct: purchased R and D system (MN, USA)
# Protocol: The hCA I was assayed following the manufacturer’s instruction and reported method (Supplementary Material Section S2) (Table 2). […]
# (§1) Carbonic Anhydrase (CA) catalyzes the reversible reaction of CO2 +
# H2O = HCO3- + H+. Carbonic Anhydrase I (CAI) was measured following the manufacturer’s instruction. […]
# (§2) 400 nm[40] and the activity was calculated using the following equation: […]
# S2.2.4. CA1 inhibitory assay
# (§3) Carbonic Anhydrase (CA) cataly zes the reversible reaction of CO2 + H2O = HCO3- + H+. Carbonic Anhydrase I (CAI) was measured following the […]
# Tris, 75 mM NaCl, pH 7.5). The substrate (4-Nitroph enyl acetate, 4NPA, 100 mM stock in acetone) was diluted in 2 mM in assay buffer. The reaction was started by adding 50 µL of 2 mM substrate with 50 µL of 100 ng/µL rhCAI in […]
# (§4) 96 well plate. […]
# (§5) 400 nm[41] and the activity was calculated using the following equation: […]
# hCA II = target: T2, hCA II (Homo sapiens, UniProt P00918); assay: CAII inhibitory assay (p-nitrophenyl acetate); format: biochemical; settings: average ± SEM, three independent experiments; read-out: Carbonic Anhydrase IC50 (uM) hCA II
# T2 construct: purchased BPS bioscience (CA, USA)
# Protocol: CAII was assayed following the manufacturer’s instruction and reported method (Supplementary Material Section S2) (Table 2). […]
# as §1
# (§6) H2O = HCO3- + H+. […]
# as §2
# = HCO3- + H+. […]
# as §4, §5
# S2.2.5. CAII inhibitory assay
# CAII was assayed following the manufacturer’s instruction. A amount
# of 1,400 pmol/min/µg assay mixture containing 100 mM NaCl, 15 mM Tris-
# hCA IX = target: T3, hCA IX (Homo sapiens, UniProt Q16790); assay: hCA IX inhibitory assay; format: biochemical; settings: average ± SEM, three independent experiments; read-out: Carbonic Anhydrase (IC50, nM) CA-IX
# T3 construct: purchased BPS bioscience (CA, USA)
# Protocol: The hCA IX was assayed following the manufacturer’s instruction and reported method. (Table 1, Figure 3A,B) (Supplementary Material Section S2). […]
# mixture was incubated for 30 min at room temperature and the absorbance was measured at 405nm.
# (§7) S2.2.3. hCAXII inhibitory assay
# as §1
# H2O = HCO3- + H+. Carbonic Anhydrase I (CAI) was measured following the manufacturer’s instruction. In brief, recombinant Human
# Carbonic Anhydrase XII (rh CAXII) was diluted to […] in assay buffer (12.5 mM Tris, 75 mM NaCl, pH 7.5). The substrate (4-Nitrophenyl acetate, 4NPA, 100 mM stock in acetone) was diluted in 2 mM in assay buffer. The reaction was started by adding 50 µL of 2 mM substrate with 50 µL of 20 ng/µL rhCAXII in 96 well plate. Substrate blank containing 50 µL of assay buffer and 50 µL of substrate was included. The kinetics for 5 min of the reaction mixtures were measured at wavelength of 400 nm[40] and the activity was calculated using the following equation: […]
# as §3, §5
# CAII was assayed following the manufacturer’s instruction. […] Incubate for 30 min at RT and the resulted absorbance was measured at 405 nm. […]
# MCF7 cells = assay: MTT cytotoxicity assay on MCF7 (hypoxia and normoxia); format: cell-based; settings: Homo sapiens
# Protocol: (§8) Suppling, specification and incubation of MCF7 and MCF10a cell lines were carried out according to the method mentioned in detail in Supplementary Material Section S2.
# (§9) MTT assay is a method used for in vitro cytotoxicity of different compounds. The method details are illustrated in Supplementary Material Section S2. […]
# (§10) Carbonic Anhydrase (CA) catalyzes the reversible reaction of CO2 + […]
# as §6
# (§11) 400 nm[40] and the activity was calculated using the following equation: […] = HCO3- + H+. […]
# as §4, §5
# (§12) S2.2.6. Cell culture Protocol
# (§13) MCF7 and MCF10a cell lines were obtained from American Type
# (§14) Culture Collection, the cultured cells were grown using DMEM
# (§15) (Invitrogen/Life Technologies) in 10% fetal bovine serum (FBS), 10 μg/ml of insulin (Sigma), and 1% penicillin-streptomycin antibiotics. Other chemicals and reag ents were from ob tained f rom S igma or In vitrogen. Cells d en sity was 1.2 – 1.8 × 10^3 cells/well in a volume of 100 µl complete growth medium + 100 μl of the tested compound/well in a 96-well plate for 24 hours performing […]
# (§16) assay. After treatment of cells with the serial concentrations of the tested compounds, incubation for 48 h at 37 °C is carried out.
# (§17) S2.2.7. MTT – Cytotoxicity assay protocol
# MTT assay is a method used for in vitro cytotoxicity of different compounds. […]
# [2] = MTT cytotoxicity assay on MCF10a; format: cell-based; settings: human, MCF10a normal breast cells, MCF10a normal breast cell line
# Protocol: as §8, §9, §10, §6, §11, §4, §5, §12, §13, §14, §15, §16, §17
# (§18) MTT assay is a method used for in vitro cytotoxicity of different compounds. MTT vial was reconstituted in 3 ml growth media and diluted
# (§19) MTT in an amount equal to 10% of the culture medium volume. After 4hrs incubation of the reagent with the treated MCF7 and MCF10a cells, culture media was removed from incubator and dissolve the resulting formazan crystals by adding an amount of MTT solubilizing solution equal volume with the original culture medium.
# MCF10a cells = assay: MTT cytotoxicity assay on MCF10a; format: cell-based; settings: MCF10a normal breast cell line
# Protocol: as §8, §9, §10, §6, §11, §4, §5, §12, §13, §14, §15, §16, §17, §18, §19
# [3] = target: T4, recombinant Human Carbonic Anhydrase XII (Homo sapiens, UniProt O43570); assay: hCA XII inhibitory assay (4-nitrophenyl acetate esterase); format: biochemical; settings: average ± SEM, three independent experiments; read-out: Carbonic Anhydrase (IC50, nM) CA-XII
# T4 construct: purchased R and D system (MN, USA)
# T4 sequence (O43570 25-354): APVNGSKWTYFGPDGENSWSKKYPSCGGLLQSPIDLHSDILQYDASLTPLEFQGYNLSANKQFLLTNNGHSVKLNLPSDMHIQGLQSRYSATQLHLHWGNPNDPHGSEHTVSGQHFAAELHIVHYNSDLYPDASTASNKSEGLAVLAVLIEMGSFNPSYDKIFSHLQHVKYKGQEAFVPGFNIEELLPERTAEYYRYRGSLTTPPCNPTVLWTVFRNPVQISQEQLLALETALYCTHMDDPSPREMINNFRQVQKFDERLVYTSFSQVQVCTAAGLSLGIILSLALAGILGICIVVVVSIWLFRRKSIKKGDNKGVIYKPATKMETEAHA
# Protocol: mixture was incubated for 30 min at room temperature and the absorbance […]
# as §7, §1
# H2O = HCO3- + H+. Carbonic Anhydrase I (CAI) was measured following the manufacturer’s instruction. In brief, recombinant Human […]
# mM Tris, 75 mM NaCl, pH 7.5). The substrate (4-Nitrophenyl acetate, 4NPA, 100 mM stock in acetone) was diluted in 2 mM in assay buffer. The reaction was started by adding 50 µL of 2 mM substrate with 50 µL of 20 ng/µL rhCAXII in 96 well plate. Substrate blank containing 50 µL of assay buffer and 50 µL of substrate was included. The kinetics for 5 min of the reaction mixtures were measured at wavelength of 400 nm[40] and the activity was calculated using the following equation:
# Specific Activity (pmol/min/µg) = Adjusted Vmax (OD/ mi n) x Conver sion Factor (pmol /OD) amount of enzyme (µg) S2.2.4. CA1 inhibitory assay
# as §3
# Tris, 75 mM NaCl, pH 7.5). The substrate (4-Nitroph enyl acetate, 4NPA, 100 mM stock in acetone) was diluted in 2 mM in assay buffer. The reaction was started by adding 50 µL of 2 mM substrate with 50 µL of 100 ng/µL rhCAI in 96 well plate. […]
# as §5
# T1 sequence (P00915 whole entry): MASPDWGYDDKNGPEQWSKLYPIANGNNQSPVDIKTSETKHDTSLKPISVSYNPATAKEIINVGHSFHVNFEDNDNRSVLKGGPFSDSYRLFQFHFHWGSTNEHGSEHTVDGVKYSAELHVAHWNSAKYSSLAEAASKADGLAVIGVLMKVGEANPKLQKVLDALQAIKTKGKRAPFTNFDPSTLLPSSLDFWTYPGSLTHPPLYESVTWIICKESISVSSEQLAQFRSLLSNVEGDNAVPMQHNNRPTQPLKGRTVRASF
SMILES,IC50 [1],IC50 (hCA II),IC50 (hCA IX),"IC50 (MCF7 cells; MCF7, MCF7, hypoxia, read-out: Cytotoxicity (IC50 µg/mL) MCF7 Hypoxia)","IC50 (MCF7 cells; MCF7, MCF7, normoxia, read-out: Cytotoxicity (IC50 µg/mL) MCF7 Normoxia)",IC50 at 48 h [2],Cytotoxicity (IC50 µg/mL) MCF10a (MCF10a cells),IC50 [3]
"C=CCN(c1cc(C)on1)S(=O)(=O)c1ccc(N)cc1 [S2, N-Allyl-4-amino-N-(5-methylisoxazol-3-yl)benzenesulfonamide]",0.177 ± 0.008 µM,0.102 ± 0.006 µM,,,,,,
"CCCN(c1cc(C)on1)S(=O)(=O)c1ccc(N)cc1 [S3, 4-Amino-N-(5-methylisoxazol-3-yl)-N-propylbenzenesulfonamide]",0.08 ± 0.003 µM,0.199 ± 0.011 µM,0.042 nM,,,,,
"Cc1ccc(C(=O)Nc2ccc(S(=O)(=O)Nc3cc(C)on3)cc2)cc1 [S8, 4-Methyl-N-(4-(N-(5-methylisoxazol-3-yl)sulfamoyl)phenyl)benzamide]",1.02 ± 0.049 µM,1.85 ± 0.12 µM,,3.64 ± 0.2 µg/mL,7.68 ± 0.41 µg/mL,31.6 ± 1.71 µg/mL,,
"Cc1cc(NS(=O)(=O)c2ccc(NC(=O)c3ccc(Cl)cc3)cc2)no1 [S9, 4-Chloro-N-(4-(N-(5-methylisoxazol-3-yl)sulfamoyl)phenyl)benzamide]",0.121 ± 0.006 µM,0.543 ± 0.03 µM,,,,34.7 ± 1.87 µg/mL,46.72 ± 2.52 µg/mL,
"Cc1ccc(/C=C2\SC(Nc3ccc(S(=O)(=O)Nc4cc(C)on4)cc3)=NC2=O)cc1 [S19, (Z)-4-((5-(4-Methylbenzylidene)-4-oxo-4,5-dihydrothiazol-2-yl)amino)-N-(5-methylisoxazol-3-yl)benzenesulfonamide]",,,,,,,,0.9 nM

# Reference: paper PMC9501356, “New Sulfamethoxazole Derivatives as Selective Carbonic Anhydrase IX and XII Inhibitors: Design, Synthesis, Cytotoxic Activity and Molecular Modeling” (Pharmaceuticals, 2022)
